From patent US9963726B2, “Fiber-containing carbohydrate composition” (Tate & Lyle Ingredients Americas LLC, priority 2006, dated 2018)
Marks after values point to notes of the source that are not given here.

Test system: healthy human subjects
Assay: Blood glucose response in healthy human subjects
Format: in vivo
Settings: 10 healthy human subjects
Procedure: Samples containing 25 g (dsb) of the syrup were prepared as follows. 2.838 kg of filtered water was added to a jug containing a pre-weighed quantity of RCS. The lid was placed on the jug, and it was then mixed thoroughly by shaking and swirling until all syrup was dissolved. 12 oz. (350 g) of this solution contained 25 g of the test carbohydrate on a dry solids basis.
The control solution was prepared by mixing 25 g anhydrous glucose with 300 mL of water.
The samples were administered to 10 healthy human subjects. The characteristics of the subjects were: 5 male, 5 female; age, 35±10 y; body mass index, 24.0±3.8 kg/m^2. Each subject undertook nine tests on separate days which included the six test foods and on three occasions the standard glucose drink containing 25 g of available carbohydrate. Blood glucose was measured fasting and at 15, 30, 45, 60, 90 and 120 minutes after eating. Incremental areas under the blood glucose response curves (iAUC) were calculated. Each subject's iAUC after consumption of each test food was expressed as a percentage of the mean iAUC of the three glucose controls taken by the same subject. The incremental areas under the curve and relative glycemic response (RGR) of the products were: […]

## OC[C@H]1OC(O)[C@H](O)[C@@H](O)[C@@H]1O (some centres unmarked) [Glucose, anhydrous glucose]
25 g (dsb), blood glucose fasting to 120 minutes
  iAUC (incremental area under the blood glucose response curve): 124.4 ± 13.5^a
iAUC as percentage of mean iAUC of the three glucose controls of the same subject
  RGR (relative glycemic response): 100^a
